Biological target: T1, human TRPV4 (Homo sapiens, UniProt Q9HBA0)
T1 construct: host or cells: tetracycline-inducible Flp-In T-REx 293 cells
Test: Hypotonicity-induced Ca2+ influx (Fluo-4, FDSS)
Assay type: cell-based
Method: Hypotonicity-Induced Ca^2+ Influx
TRPV4 channel activation/opening results in an influx of Ca^2+ (Liedtke, W. et al., 2000 (NPL 1)). The resulting changes in intracellular calcium are monitored using a Ca^2+ sensitive fluorescent dye Fluo-4 (Invitrogen). Dye loaded cells are treated with the test compounds for 5 minutes prior to the addition of a hypotonic solution and the inhibition of the hypotonicity-induced activation is recorded.
Forty microL of tetracycline-inducible Flp-In T-REx 293 cells (Invitrogen) stably expressing human TRPV4 are seeded onto the poly-D-lysine coated 384-well plate (Corning) at a density of 10,000 cells per well. The following day, TRPV4 expression is induced by adding 0.5 microg/mL tetracycline for 20-24 hours. On the day of the experiment, the media is removed and replaced with 40 microL of dye loading buffer [1 microM Fluo-4 AM (Invitrogen), 0.01% Pluronic F-127, and 20 mM HEPES in Hanks' balanced salt solutions (HBSS; Invitrogen)] and then the cells are incubated for 60 minutes at 25° C. Dye is then removed and replaced with 20 microL of assay buffer (20 mM HEPES in HBSS). Five minutes prior to the fluorescence measurement, 10 microL of test compound is added to the cells. Using the FDSS instrument (Hamamatsu Photonics), 30 microL of hypotonic solution (90 mM D-mannitol and 1.26 mM CaCl2 in ultrapure water) is added 30 seconds after the start of measurement. The calcium flux signal is recorded for a total of 4.5 minutes.

[1] = Flp-In T-REx 293 cells expressing human TRPV4, examples listed under heading 'Human IC50<50 nM'
[2] = Flp-In T-REx 293 cells stably expressing human TRPV4, compounds listed by potency bin (<10 nM Tables 96-1/96-2, <3 nM Table 97)

T1 sequence (Q9HBA0 whole entry): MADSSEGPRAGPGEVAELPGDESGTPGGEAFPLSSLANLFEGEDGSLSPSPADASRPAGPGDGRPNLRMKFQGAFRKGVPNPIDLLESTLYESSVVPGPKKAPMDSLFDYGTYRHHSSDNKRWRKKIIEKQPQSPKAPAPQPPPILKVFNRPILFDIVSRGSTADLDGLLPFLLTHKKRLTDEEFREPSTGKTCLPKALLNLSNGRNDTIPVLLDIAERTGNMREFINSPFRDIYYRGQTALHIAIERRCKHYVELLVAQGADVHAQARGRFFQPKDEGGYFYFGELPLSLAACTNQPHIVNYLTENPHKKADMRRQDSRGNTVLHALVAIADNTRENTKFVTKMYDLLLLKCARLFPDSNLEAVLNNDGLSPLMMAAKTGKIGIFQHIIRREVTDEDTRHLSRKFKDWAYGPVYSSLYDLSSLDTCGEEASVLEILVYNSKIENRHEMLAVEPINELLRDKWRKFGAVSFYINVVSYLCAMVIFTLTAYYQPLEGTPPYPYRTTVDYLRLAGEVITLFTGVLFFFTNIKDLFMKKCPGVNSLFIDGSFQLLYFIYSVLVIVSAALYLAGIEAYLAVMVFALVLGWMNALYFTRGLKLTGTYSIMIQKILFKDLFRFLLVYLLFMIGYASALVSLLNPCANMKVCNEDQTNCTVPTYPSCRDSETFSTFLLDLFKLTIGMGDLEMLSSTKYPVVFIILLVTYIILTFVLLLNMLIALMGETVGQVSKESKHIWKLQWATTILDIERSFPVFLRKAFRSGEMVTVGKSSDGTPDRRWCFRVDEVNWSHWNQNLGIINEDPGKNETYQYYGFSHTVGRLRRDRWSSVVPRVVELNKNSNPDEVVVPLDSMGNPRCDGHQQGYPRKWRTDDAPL

| SMILES | IC50 [1] | IC50 [2] |
| --- | --- | --- |
| O=C(C(O)c1cccc(S(F)(F)(F)(F)F)c1)N1CCCc2nc(C3(c4ccccc4)CC3)[nH]c(=O)c2C1 (stereo not shown) [17-41] | < 0.05 µM | < 0.01 µM |
| O=C(C(O)c1cccc(Oc2cccc(C(F)(F)F)c2)c1)N1CCCc2nc(C3(c4ccccc4)CC3)[nH]c(=O)c2C1 (stereo not shown) [17-75] | < 0.05 µM | < 0.003 µM |
| CC(C)c1cccc(C2(c3nc4c(c(=O)[nH]3)CN(C(=O)C(F)(F)c3cccc(Cl)c3)CCC4)CC2)c1 [20-8] | < 0.05 µM | < 0.01 µM |
| O=C(C(O)c1cccc(C(F)(F)F)c1F)N1CCc2nc(C3(c4cncc(-c5ccccc5)c4)CC3)[nH]c(=O)c2C1 (stereo not shown) [16-2] | < 0.05 µM | < 0.01 µM |
| O=C(C(O)c1cccc(OCc2ccccc2)c1)N1CCCc2nc(C3(c4ccccc4)CC3)[nH]c(=O)c2C1 (stereo not shown) [17-76] | < 0.05 µM | < 0.01 µM |
| O=C(C(O)c1cccc(-c2cccc(OC(F)(F)F)c2)c1)N1CCCc2nc(C3(c4cccc(Cl)c4)CC3)[nH]c(=O)c2C1 (stereo not shown) [17-23] | < 0.05 µM | < 0.01 µM |
| O=C(C(O)c1cccc(SC(F)(F)F)c1)N1CCCc2nc(C3(c4ccccc4)CC3)[nH]c(=O)c2C1 (stereo not shown) [17-38] | < 0.05 µM | < 0.01 µM |
| CC(C)(C)c1ccc(-c2cccc(CC(=O)N3CCCc4nc(C5(c6ccccc6)CC5)[nH]c(=O)c4C3)c2)cc1 [17-132] | < 0.05 µM | – |
| CC(C)(C)c1ccc(-c2cccc(CC(=O)N3CCCc4nc(C5(c6cccc(Cl)c6)CC5)[nH]c(=O)c4C3)c2)cc1 [17-127] | < 0.05 µM | < 0.01 µM |
| O=C(Cc1cccc(-c2cccc(C(F)(F)F)c2)c1)N1CCCc2nc(C3(c4cccc(-c5csc6ccccc56)c4)CC3)[nH]c(=O)c2C1 [17-125] | < 0.05 µM | < 0.01 µM |
| O=C(Cc1cccc(Oc2ccccc2)c1)N1CCCc2nc(C3(c4cccc(Cl)c4)CC3)[nH]c(=O)c2C1 [17-140] | < 0.05 µM | – |
| CC(C)c1csc(C2(c3nc4c(c(=O)[nH]3)CN(C(=O)C(O)c3cccc(S(F)(F)(F)(F)F)c3)CCC4)CC2)c1 (stereo not shown) [18-18] | < 0.05 µM | < 0.01 µM |
| O=C(C(O)c1cccc(SC(F)(F)F)c1)N1CCCc2nc(C3(c4cccc(F)c4)CC3)[nH]c(=O)c2C1 (stereo not shown) [17-30] | < 0.05 µM | < 0.01 µM |
| CC(C)c1csc(C2(c3nc4c(c(=O)[nH]3)CN(C(=O)Cc3cccc(-c5cccc(C(F)(F)F)c5)c3)CCC4)CC2)c1 [18-29] | < 0.05 µM | < 0.01 µM |
| O=C(/C=C/c1cccc(C(F)(F)F)c1)N1CCCc2nc(C3(c4cccc(Cl)c4)CC3)[nH]c(=O)c2C1 [17-117] | < 0.05 µM | < 0.01 µM |
| O=C(C(O)c1cccc(SC(F)(F)F)c1)N1CCc2nc(C3(c4cccs4)CC3)[nH]c(=O)c2C1 (stereo not shown) [15-12] | < 0.05 µM | – |
| O=C(C(O)c1cccc(-c2cccc(F)c2)c1)N1CCc2nc(C3(c4cccc(Cl)c4)CC3)[nH]c(=O)c2C1 (stereo not shown) [14-12] | < 0.05 µM | < 0.01 µM |
| O=C([C@H](O)c1cccc(C(F)(F)F)c1)N1CCCc2nc(C3(c4cncc(Br)c4)CC3)[nH]c(=O)c2C1 [19-6] | < 0.05 µM | – |
| O=C([C@H](O)c1cccc(Cl)c1)N1CCc2nc(C3(c4cccc(C5CCCCC5)c4)CC3)[nH]c(=O)c2C1 [14-1] | < 0.05 µM | < 0.003 µM |
| O=C([C@H](O)c1cccc(Cl)c1)N1CCc2nc(C3(c4ccc(F)cc4)CC3)[nH]c(=O)c2C1 [3-22] | < 0.05 µM | – |

The next lines start with the values.

| IC50 [1] | IC50 [2] | SMILES |
| --- | --- | --- |
| < 0.05 µM | < 0.01 µM | CC(C)c1cncc(C2(c3nc4c(c(=O)[nH]3)CN(C(=O)[C@H](O)c3cccc(-c5ccc(C(F)(F)F)cc5)c3)CC4)CC2)c1 [47-2] |
| < 0.05 µM | – | O=C(C(O)c1cccc(-c2cccc(C3CC3)c2)c1)N1CCc2nc(C3(c4ccccc4)CC3)[nH]c(=O)c2C1 (stereo not shown) [44-20] |
| < 0.05 µM | – | O=C([C@H](O)c1cccc(-c2ccc3cnccc3c2)c1)N1CCc2nc(C3(c4ccccc4)CC3)[nH]c(=O)c2C1 [44-89] |
| < 0.05 µM | < 0.01 µM | CC(C)(C)c1ccc(-c2cccc([C@@H](O)C(=O)N3CCCc4nc(C5(c6cccc(Cl)c6)CC5)[nH]c(=O)c4C3)c2)cc1 [50-22] |
| < 0.05 µM | < 0.003 µM | O=C([C@H](O)c1cccc(C(F)(F)F)c1)N1CCCc2nc(C3(c4cccc(-c5cnn(C6CCC6)c5)c4)CC3)[nH]c(=O)c2C1 [42-12] |
| < 0.05 µM | < 0.01 µM | O=C(C(O)c1cccc(-c2cccc(OC(F)(F)F)c2)c1)N1CCCc2nc(C3(c4ccccc4)CC3)[nH]c(=O)c2C1 (stereo not shown) [49-7] |
| < 0.05 µM | < 0.01 µM | O=C(C(O)c1cccc(-c2ccnc(C(F)(F)F)c2)n1)N1CCc2nc(C3(c4ccccc4)CC3)[nH]c(=O)c2C1 (stereo not shown) [48-3] |
| < 0.05 µM | – | COc1cccc(-c2cccc(C(O)C(=O)N3CCc4nc(C5(c6ccccc6)CC5)[nH]c(=O)c4C3)c2)c1 (stereo not shown) [44-53] |
| < 0.05 µM | < 0.01 µM | O=C([C@H](O)c1cccc(-c2cccc(C3CC3)c2)c1)N1CCCc2nc(C3(c4cccc(-c5csc6ccccc56)c4)CC3)[nH]c(=O)c2C1 [52-15] |
| < 0.05 µM | < 0.01 µM | O=C([C@H](O)c1cccc(C(F)(F)F)c1)N1CCCc2nc(C3(c4cc(C(=O)N(Cc5ccccc5)C5CCCCC5)cs4)CC3)[nH]c(=O)c2C1 [59-16] |
| < 0.05 µM | < 0.01 µM | CC(C)c1cncc(C2(c3nc4c(c(=O)[nH]3)CN(C(=O)[C@H](O)c3cccc(-c5ccc(C(C)(C)C)cc5)c3)CC4)CC2)c1 [47-1] |
| < 0.05 µM | < 0.003 µM | O=C([C@H](O)c1cccc(-c2ccnc(C(F)(F)F)c2)c1)N1CCCc2nc(C3(c4ccccc4)CC3)[nH]c(=O)c2C1 [49-17] |
| < 0.05 µM | < 0.01 µM | O=C([C@H](O)c1cccc(-c2cccc(F)c2)c1)N1CCCc2nc(C3(c4cncc(C5CCCCC5)c4)CC3)[nH]c(=O)c2C1 [55-11] |
| < 0.05 µM | – | CC(C)c1cncc(C2(c3nc4c(c(=O)[nH]3)CN(C(=O)C(F)(F)c3cccc(Cl)c3)CC4)CC2)c1 [22-10] |
| < 0.05 µM | < 0.01 µM | O=C([C@H](O)c1cccc(-c2cccc(OC(F)(F)F)c2)c1)N1CCCc2nc(C3(c4cccc(Cl)c4)CC3)[nH]c(=O)c2C1 [50-3] |
| < 0.05 µM | < 0.01 µM | O=C([C@H](O)c1cccc(Cl)c1)N1CCc2nc(C3(c4cccc(C5CCCC5)c4)CC3)[nH]c(=O)c2C1 [24-1] |

| IC50 [1] | IC50 [2] | SMILES |
| --- | --- | --- |
| < 0.05 µM | < 0.01 µM | O=C([C@H](O)c1cccc(Cl)c1)N1CCc2nc(C3(c4cccc(-c5cnsc5)c4)CC3)[nH]c(=O)c2C1 [34-2] |
| < 0.05 µM | – | O=C([C@H](O)c1cccc(C(F)(F)F)c1)N1CCCc2nc(C3(c4cncc(-c5cnsc5)c4)CC3)[nH]c(=O)c2C1 [43-2] |
| < 0.05 µM | < 0.01 µM | CC(C)c1cncc(C2(c3nc4c(c(=O)[nH]3)CN(C(=O)C(F)(F)c3cccc(Cl)c3F)CCC4)CC2)c1 [22-8] |
| < 0.05 µM | – | CC(C)(O)CCc1csc(C2(c3nc4c(c(=O)[nH]3)CN(C(=O)[C@H](O)c3cccc(C(F)(F)F)c3)CCC4)CC2)c1 [30-12] |
| < 0.05 µM | < 0.01 µM | CC(C)(C)CC(=O)N1CCN(c2ccc(-c3cccc(C4(c5nc6c(c(=O)[nH]5)CN(C(=O)[C@H](O)c5cccc(C(F)(F)F)c5)CCC6)CC4)c3)cn2)CC1 [42-85] |
| < 0.05 µM | < 0.003 µM | O=C([C@H](O)c1cccc(-c2cccc(OC(F)(F)F)c2)c1)N1CCc2nc(C3(c4ccccc4)CC3)[nH]c(=O)c2C1 [44-72] |
| < 0.05 µM | < 0.01 µM | CC(C)c1cncc(C2(c3nc4c(c(=O)[nH]3)CN(C(=O)[C@H](O)c3cccc(-c5ccc(OC(F)(F)F)cc5)c3)CC4)CC2)c1 [47-6] |
| < 0.05 µM | < 0.01 µM | O=C([C@H](O)c1cccc(C(F)(F)F)c1)N1CCCc2nc(C3(c4cccc(C5=CCN(C(=O)N6CCCCC6)CC5)c4)CC3)[nH]c(=O)c2C1 [42-73] |
| < 0.05 µM | < 0.01 µM | O=C([C@H](O)c1cccc(Cl)c1)N1CCCc2nc(C3(c4cccc(-c5cnn(C6CC6)c5)c4)CC3)[nH]c(=O)c2C1 [40-13] |
| < 0.05 µM | – | O=C(C(O)c1cccc(-c2ccccc2)c1)N1CCc2nc(C3(c4ccccc4)CC3)[nH]c(=O)c2C1 (stereo not shown) [44-55] |
| < 0.05 µM | < 0.01 µM | O=C([C@H](O)c1cccc(-c2ccc(Cl)c(C(F)(F)F)c2)c1)N1CCCc2nc(C3(c4ccccc4)CC3)[nH]c(=O)c2C1 [49-37] |
| < 0.05 µM | < 0.003 µM | CC(C)c1cccc(-c2cccc([C@@H](O)C(=O)N3CCCc4nc(C5(c6ccccc6)CC5)[nH]c(=O)c4C3)c2)c1 [49-50] |
| < 0.05 µM | < 0.01 µM | O=C(Cc1cccc(-c2cccc(C(F)(F)F)c2)c1)N1CCCc2nc(C3(c4cccc(C5=CCCCC5)c4)CC3)[nH]c(=O)c2C1 [42-70] |
| < 0.05 µM | < 0.003 µM | Cc1cc(-c2cccc([C@@H](O)C(=O)N3CCCc4nc(C5(c6ccccc6)CC5)[nH]c(=O)c4C3)c2)ccc1Cl [49-51] |
| < 0.05 µM | < 0.003 µM | O=C([C@H](O)c1cccc(-c2cccc(F)c2)c1)N1CCCc2nc(C3(c4cccc(Cl)c4)CC3)[nH]c(=O)c2C1 [50-6] |
| < 0.05 µM | – | Cc1ccc(-c2cccc(C(O)C(=O)N3CCc4nc(C5(c6ccccc6)CC5)[nH]c(=O)c4C3)c2)cc1F (stereo not shown) [44-34] |

— patent publication US12673946B2, “Pyrimidin-4(3H)-one derivatives as TRPV4 antagonists” (RaQualia Pharma Inc., priority 2020, dated 2026)
